In patent publication US5674988A, “4-N-substituted sialic acids and their sialosides” (E. I. Du Pont de Nemours and Company, priority 1996, dated 1997):
Structures can show the parent of a compound that is named as a salt.

Biological target: influenza A neuraminidase
Experiment: Radiolabeled-substrate neuraminidase inhibition assay (hydrolysis of 14C-labeled αDNeuAc(2-6)βDGal(1-4)DGlcNAc, A)
Assay type: biochemical, influenza A virus
Conditions: substrate A at 1.0-8.0 mM; inhibitor 0.07, 0.14, 0.28 mM; 100 mM NaOAc-5 mM Na2HPO4 pH 5.5; 37° C.; from Lineweaver-Burk plots; read-out: inhibition constant Ki
Description: In order to determine the effectiveness of the instant thiosialosides as neuraminidase inhibitors, incubations were performed involving the neuraminidase, the thiosialoside inhibitor and a ^14 C-labeled substrate, ^14 C-labeled αDNeuAc (2-6) βDGal (1-4) DGlcNAc (A).
Inhibition constants of the inhibitors were determined by incubating (37° C.) a solution of A at four different concentrations with the neuraminidase, in the presence or absence of the inhibitors. After the reaction, the reaction mixture was diluted with deionized water and passed through a column of Dowex resin. The column was further eluted with deionized water. Under these conditions, only the free LacNAc elutes. The eluant was diluted with Scintillation fluid (10 mL, Formula 989, NEN, MA) and the radioactivity was measured, and the amount of free LacNAc liberated was determined.
The activity of neuraminidase was measured with a radiolabeled substrate. […]
The neuraminidase concentration was 53 ug of influenza A virus in 60 uL of total reaction volume. […] The eluant was diluted with Scintillation fluid (10 mL), Formula 989, NEN, MA) and the radioactivity was measured for 2 or 5 min with a Liquid Scintillation counter. From the Lineweaver-Burk plots for the hydrolysis of A the inhibition constant Ki was calculated according to methods known in the art.

Structure (SMILES)	Ki
CC(=O)NC1C(N)CC(OCC2OC(O)C(O)C(O)C2O)(C(=O)O)OC1C(O)C(O)CO [Compound 12, Sodium Salt of 5-acetamido-4-amino-3,4,5-trideoxy-D-glycero-D-galacto-nonulopyranosylonicacid (2-6)-α-D-galacto-pyranose]	100 µM
CC(=O)N[C@H]1[C@H]([C@H](O)[C@H](O)CO)O[C@@](S[C@H](C)[C@H]2OC(O)[C@H](O)[C@@H](O)[C@H]2O)(C(=O)O)C[C@@H]1N (stereo partly drawn) [Compound 14, Sodium Salt of 5-acetamido-4-amino-2-thio-3,4,5-trideoxy-D-glycero-D-galacto-nonulopyranosylonic acid(2-S-6)-7-deoxy-α,β-D-glycero-D-galacto-heptopyranose]	51 µM
